Reference: patent publication US10750743B2, “Pyridazinone herbicides” (E.I. DU PONT DE NEMOURS AND COMPANY, priority 2015, dated 2020)

Experiments:
Assay type in all cases: in vivo
[1] = system: wheat (Triticum aestivum); assay: Test A postemergence application, visual injury rating; details: 0 to 100 scale, 0 no effect, 100 complete control
Excerpt: (§1) Seeds of plant species selected from barnyardgrass (Echinochloa crus-galli), kochia (Kochia scoparia), ragweed (common ragweed, Ambrosia elatior), ryegrass, It. (Italian ryegrass, Lolium multiflorum), foxtail, giant (giant foxtail, Setaria faberii), and pigweed (Amaranthus retroflexus), were planted into a blend of loam soil and sand and treated preemergence with a directed soil spray using test chemicals formulated in a non-phytotoxic solvent mixture which included a surfactant.
(§2) At the same time, plants selected from these weed species and also wheat (Triticum aestivum), corn (Zea mays), blackgrass (Alopecurus myosuroides), and galium (catchweed bedstraw, Galium aparine), were planted in pots containing the same blend of loam soil and sand and treated with postemergence applications of test chemicals formulated in the same manner Plants ranged in height from 2 to 10 cm and were in the one- to two-leaf stage for the postemergence treatment. Treated plants and untreated controls were maintained in a greenhouse for approximately 10 d, after which time all treated plants were compared to untreated controls and visually evaluated for injury. Plant response ratings, summarized in Table A, are based on a 0 to 100 scale where 0 is no effect and 100 is complete control. A dash (-) response means no test result.

kochia (Kochia scoparia) [2] = assay: as above; details: 0 to 100 scale, 0 no effect, 100 complete control
Excerpt: as §1, §2

[3] = system: blackgrass (Alopecurus myosuroides); assay: as above; details: 0 to 100 scale, 0 no effect, 100 complete control
Excerpt: as §1, §2

[4] = system: ryegrass, It. (Italian ryegrass, Lolium multiflorum); assay: as above; details: 0 to 100 scale, 0 no effect, 100 complete control
Excerpt: as §1, §2

[5] = system: barnyardgrass (Echinochloa crus-galli); assay: as above; details: 0 to 100 scale, 0 no effect, 100 complete control
Excerpt: as §1, §2

corn (Zea mays) = assay: as above; details: 0 to 100 scale, 0 no effect, 100 complete control
Excerpt: as §1, §2

[6] = system: pigweed (Amaranthus retroflexus); assay: as above; details: 0 to 100 scale, 0 no effect, 100 complete control
Excerpt: as §1, §2

[7] = system: galium (catchweed bedstraw, Galium aparine); assay: as above; details: 0 to 100 scale, 0 no effect, 100 complete control
Excerpt: as §1, §2

[8] = system: ragweed (common ragweed, Ambrosia elatior); assay: as above; details: 0 to 100 scale, 0 no effect, 100 complete control
Excerpt: as §1, §2

[9] = system: foxtail, giant (giant foxtail, Setaria faberii); assay: as above; details: 0 to 100 scale, 0 no effect, 100 complete control
Excerpt: as §1, §2

kochia (Kochia scoparia) [10] = assay: Test A preemergence, directed soil spray, visual injury rating; details: 0 is no effect, 100 is complete control
Excerpt: as §1, §2

[11] = system: ryegrass, It. (Italian ryegrass, Lolium multiflorum); assay: as above; details: 0 is no effect, 100 is complete control
Excerpt: as §1, §2

[12] = system: barnyardgrass (Echinochloa crus-galli); assay: as above; details: 0 is no effect, 100 is complete control
Excerpt: as §1, §2

[13] = system: pigweed (Amaranthus retroflexus); assay: as above; details: 0 is no effect, 100 is complete control
Excerpt: as §1, §2

[14] = system: ragweed (common ragweed, Ambrosia elatior); assay: as above; details: 0 is no effect, 100 is complete control
Excerpt: as §1, §2

[15] = system: foxtail, giant (giant foxtail, Setaria faberii); assay: as above; details: 0 is no effect, 100 is complete control
Excerpt: as §1, §2

Structure (SMILES) | Wheat plant response rating ([1]; 125 g ai/ha) | Wheat plant response rating ([1]; 500 g ai/ha) | Kochia plant response rating (kochia (Kochia scoparia) [2]; 125 g ai/ha) | Kochia plant response rating (kochia (Kochia scoparia) [2]; 500 g ai/ha) | Blackgrass plant response rating ([3]; 125 g ai/ha) | Blackgrass plant response rating ([3]; 500 g ai/ha) | Ryegrass, It. plant response rating ([4]; 125 g ai/ha) | Ryegrass, It. plant response rating ([4]; 500 g ai/ha) | Barnyardgrass plant response rating ([5]; 125 g ai/ha) | Barnyardgrass plant response rating ([5]; 500 g ai/ha) | Corn plant response rating (corn (Zea mays); 125 g ai/ha) | Corn plant response rating (corn (Zea mays); 500 g ai/ha) | Pigweed plant response rating ([6]; 125 g ai/ha) | Pigweed plant response rating ([6]; 500 g ai/ha) | Galium plant response rating ([7]; 125 g ai/ha) | Galium plant response rating ([7]; 500 g ai/ha) | Ragweed plant response rating ([8]; 125 g ai/ha) | Ragweed plant response rating ([8]; 500 g ai/ha) | Foxtail, Giant plant response rating ([9]; 125 g ai/ha) | Foxtail, Giant plant response rating ([9]; 500 g ai/ha) | further results
CCC(=O)Oc1c(C)nn(C)c(=O)c1-c1cccc2sccc12 [Compound 4] | 0 | 0 | 0 | 20 | 20 | 30 | 80 | 100 | 0 | 20 | 0 | 0 | 20 | 30 | 70 | 90 | 0 | 40 | 0 | 20 | Plant response rating (0 to 100 scale), Kochia (kochia (Kochia scoparia) [10]; 125 g ai/ha): 0; Plant response rating (0 to 100 scale), Kochia (kochia (Kochia scoparia) [10]; 500 g ai/ha): 60; Plant response rating (0 to 100 scale), Ryegrass, It. ([11]; 125 g ai/ha): 40; Plant response rating (0 to 100 scale), Ryegrass, It. ([11]; 500 g ai/ha): 100; Plant response rating (0 to 100 scale), Barnyardgrass ([12]; 125 g ai/ha): 0; Plant response rating (0 to 100 scale), Barnyardgrass ([12]; 500 g ai/ha): 20; Plant response rating (0 to 100 scale), Pigweed ([13]; 125 g ai/ha): 40; Plant response rating (0 to 100 scale), Pigweed ([13]; 500 g ai/ha): 70; Plant response rating (0 to 100 scale), Ragweed ([14]; 125 g ai/ha): 0; Plant response rating (0 to 100 scale), Ragweed ([14]; 500 g ai/ha): 20; Plant response rating (0 to 100 scale), Foxtail, Giant ([15]; 125 g ai/ha): 0; Plant response rating (0 to 100 scale), Foxtail, Giant ([15]; 500 g ai/ha): 20
Cc1cnc2sc(C)c(-c3c(OC(=O)C4CC4)c(C)nn(C)c3=O)c2c1 [Compound 9] | 0 | 0 | 40 | 50 | 0 | 20 | 30 | 60 | 0 | 20 | 0 | 0 | 50 | 80 | 50 | 60 | 10 | 30 | 0 | 40 | Plant response rating (0 to 100 scale), Kochia (kochia (Kochia scoparia) [10]; 125 g ai/ha): 0; Plant response rating (0 to 100 scale), Kochia (kochia (Kochia scoparia) [10]; 500 g ai/ha): 30; Plant response rating (0 to 100 scale), Ryegrass, It. ([11]; 125 g ai/ha): 30; Plant response rating (0 to 100 scale), Ryegrass, It. ([11]; 500 g ai/ha): 70; Plant response rating (0 to 100 scale), Barnyardgrass ([12]; 125 g ai/ha): 0; Plant response rating (0 to 100 scale), Barnyardgrass ([12]; 500 g ai/ha): 0; Plant response rating (0 to 100 scale), Pigweed ([13]; 125 g ai/ha): 0; Plant response rating (0 to 100 scale), Pigweed ([13]; 500 g ai/ha): 30; Plant response rating (0 to 100 scale), Ragweed ([14]; 500 g ai/ha): 30; Plant response rating (0 to 100 scale), Foxtail, Giant ([15]; 125 g ai/ha): 0; Plant response rating (0 to 100 scale), Foxtail, Giant ([15]; 500 g ai/ha): 40
